The experiment concerns the target Cytochrome P450 2E1 (Homo sapiens, UniProt P05181). The experiment in a line: Spectral Binding Assay. The source says: All UV/Vis spectra of the enzyme-ligand complexes were obtained on a Cary 5000 UV/Vis spectrophotometer.
Chain of Cytochrome P450 2E1 (P05181 whole entry): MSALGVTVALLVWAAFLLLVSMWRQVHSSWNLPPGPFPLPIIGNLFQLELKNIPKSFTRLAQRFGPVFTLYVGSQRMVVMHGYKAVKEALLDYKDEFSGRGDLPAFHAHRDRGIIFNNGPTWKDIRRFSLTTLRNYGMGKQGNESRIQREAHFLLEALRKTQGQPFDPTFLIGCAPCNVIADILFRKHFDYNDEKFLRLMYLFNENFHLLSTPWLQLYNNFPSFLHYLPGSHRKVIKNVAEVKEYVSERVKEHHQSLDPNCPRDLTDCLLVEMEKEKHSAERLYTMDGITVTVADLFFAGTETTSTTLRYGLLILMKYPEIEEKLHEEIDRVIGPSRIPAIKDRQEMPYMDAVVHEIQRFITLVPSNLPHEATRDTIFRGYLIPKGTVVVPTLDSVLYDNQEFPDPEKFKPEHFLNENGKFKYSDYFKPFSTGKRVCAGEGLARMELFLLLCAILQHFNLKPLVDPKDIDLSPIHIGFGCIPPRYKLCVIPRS
The term Kd denotes the equilibrium constant for the complex coming apart. A low value points to a tighter complex. In turn, `CCCCCCOC(=O)c1cccnc1` [Auxiliary substrate, 1a] registered a Kd of 1.4 µM. The result for `CCC(C)CCOC(=O)c1cccnc1` (stereo not drawn) [Auxiliary substrate, 10a] reads 2.6 µM. For `CC(C)CCCCOC(=O)c1cccnc1` [Auxiliary substrate, 11a] the value was 1.8 µM; for `CCCCCOC(=O)c1cccnc1` [Auxiliary substrate, 12a], 5.9 µM; for `CCCCCCCCOC(=O)c1cccnc1` [Auxiliary substrate, 14a], 2.1 µM. The result for `CC/C=C/CCOC(=O)c1cccnc1` [Auxiliary substrate, 16a] reads 1.3 µM.

`C=CCCOC(=O)c1cccnc1` [Auxiliary substrate, 18a]: binding was characterised by a dissociation constant (Kd) of 12 µM. Compound `O=C(OCC1CCCC1)c1cccnc1` [Auxiliary substrate, 20a] had a Kd of 1.6 µM.

Source of the values: BindingDB's records for doi:10.1002/cbic.201200524 (Mcgill University, 2012).
